The values below come from US6569878B1, “Substituted 4-amino-thiazol-2-yl compounds as cyclin-dependent kinase inhibitors” (Agouron Pharmaceuticals Inc., priority 1997, dated 2003).

The target of assay [1] is T1, complex of human CDK4 and cyclin D3 (Homo sapiens, UniProt P11802).
T1 construct: made in house; host or cells: insect cells, co-infected with baculovirus
Description: Inhibition of CDK4/cyclin D retinoblastoma kinase activity (D-type cyclin is D3). It is filed as biochemical. As to conditions: superscript a: D-type cyclin is D3, read-out: Ki CDK 4/D; for pKi: apparent Ki. As to the method:
Cyclin-dependent kinase activity was measured by quantifying the enzyme-catalyzed, time-dependent incorporation of radioactive phosphate from [^32P]ATP or [^33P]ATP into a protein substrate. […] Reactions were initiated with enzyme, incubated at 30° C., and terminated after 20 minutes by the addition of ethylenediaminetetraacetic acid (EDTA) to 250 mM. […] Radioactivity was quantified by exposing the dried membranes to a phosphorimager.
(§1) Apparent Ki values were measured by assaying enzyme activity in the presence of different inhibitor compound concentrations and subtracting the background radioactivity measured in the absence of enzyme. The kinetic parameters (kcat, Km for ATP) were measured for each enzyme under the usual assay conditions by determining the dependence of initial rates on ATP concentration. Inhibition data were fit to an equation for competitive inhibition using Kaleidagraph (Synergy Software), or were fit to an equation for competitive tight-binding inhibition using the software KineTic (BioKin, Ltd.).
Phosphorylated Rb substrate was captured by microfiltration on a nitrocellulose membrane and quantified using a phosphorimager as described above. For measurement of tight-binding inhibitors, the enzyme complex concentration was lowered to 5 nM, and the assay duration was extended to 60 minutes, during which the time-dependence of product formation was linear.

A further assay has as its target T2, CDK2/cyclin A (Homo sapiens, UniProt P24941).
T2 construct: made in house; host or cells: CDK2: insect cells (baculovirus); cyclin A: E. coli, then limited proteolysis
Description: Inhibition of CDK2/cyclin A retinoblastoma kinase activity. It is filed as biochemical. To be noted: read-out: Ki CDK 2/A; for Ki: μM. As to the method: Cyclin-dependent kinase activity was measured by quantifying the enzyme-catalyzed, time-dependent incorporation of radioactive phosphate from [^32P]ATP or [^33P]ATP into a protein substrate. Unless noted otherwise, assays were performed in 96-well plates in a total volume of 50 μL, in the presence of 10 mM HEPES (N-[2-hydroxyethyl]piperazine-N′-[2-ethanesulfonic acid]) (pH 7.4), 10 mM MgCl2, 25 μM adenosine triphosphate (ATP), 1 mg/mL ovalbumin, 5 μg/mL leupeptin, 1 mM dithiothreitol, 10 mM β-glycerophosphate, 0.1 mM sodium vanadate, 1 mM sodium fluoride, 2.5 mM ethylene glycol-bis(β-aminoethyl ether)-N,N,N′N′-tetraacetic acid (EGTA), 2% (v/v) dimethylsulfoxide, and 0.03-0.4 μCi [^32/33P]ATP per reaction. Reactions were initiated with enzyme, incubated at 30° C., and terminated after 20 minutes by the addition of ethylenediaminetetraacetic acid (EDTA) to 250 mM. The phosphorylated substrate was then captured on a nitrocellulose or phosphocellulose membrane using a 96-well filtration manifold, and unincorporated radioactivity was removed by repeated washing with 0.85% phosphoric acid. Radioactivity was quantified by exposing the dried membranes to a phosphorimager.
as §1
CDK2 was purified using published methodology (Rosenblatt et al., “Purification and Crystallization of Human Cyclin-dependent Kinase 2,” J. Mol. Biol., vol. 230, 1993, pp. 1317-1319) from insect cells that had been infected with a baculovirus expression vector. […] Purified, proteolyzed cyclin A was included in the assay at a three- to five-fold molar excess to CDK2. Alternatively, a complex of CDK2 and proteolyzed cyclin A was prepared and purified by gel filtration. The substrate for this assay was the same Rb substrate fragment used for the CDK4 assays, and the methodology of the CDK2/cyclin A and the CDK4/cyclin D3 assays was essentially the same, except that CDK2 was present at 150 nM or 5 nM. Ki values were measured as described above.

pKi: −log10 of the molar value. Read-outs that look alike come from different tables or passages of the source. Bounds are passed on as bounds.

T1 sequence (P11802 whole entry): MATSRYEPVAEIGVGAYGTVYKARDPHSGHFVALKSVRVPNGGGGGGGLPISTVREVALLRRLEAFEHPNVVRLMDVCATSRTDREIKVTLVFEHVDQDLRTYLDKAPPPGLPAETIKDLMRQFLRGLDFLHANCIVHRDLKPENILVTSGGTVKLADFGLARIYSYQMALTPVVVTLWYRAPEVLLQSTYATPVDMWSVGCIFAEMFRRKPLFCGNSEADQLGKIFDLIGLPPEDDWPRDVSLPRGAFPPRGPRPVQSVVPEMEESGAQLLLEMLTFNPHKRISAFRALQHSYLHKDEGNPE
T1 sequence (P30281 whole entry partner): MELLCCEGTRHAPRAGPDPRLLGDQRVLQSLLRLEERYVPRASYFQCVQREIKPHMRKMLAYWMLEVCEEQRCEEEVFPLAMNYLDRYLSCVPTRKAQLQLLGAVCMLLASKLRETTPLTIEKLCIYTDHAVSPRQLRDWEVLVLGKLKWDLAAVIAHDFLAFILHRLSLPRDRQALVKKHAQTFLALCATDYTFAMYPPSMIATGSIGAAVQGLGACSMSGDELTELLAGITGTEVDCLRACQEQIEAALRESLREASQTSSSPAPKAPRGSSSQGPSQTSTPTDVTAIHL

For the compound `CCOC(=O)CC(C)Nc1nc(N)c(C(=O)c2sccc2C)s1` (racemic) [C(46), Ethyl 3RS-[4-Amino-5-(3-methyl-thiophene-2-carbonyl)-thiazol-2-ylamino]-butyrate], the pKi is 6.61 in assay [1] and 5.75 on CDK2/cyclin A. For the compound `COC(=O)c1sc(Nc2ccc3nc[nH]c3c2)nc1N` [A(12), 4-Amino-2-(1H-benzoimidazol-6-ylamino)-thiazole-5-carboxylic Acid Methyl Ester], the results for the pKi (in assay [1]; on CDK2/cyclin A) were 5.03 and 5.39, respectively.

For `COc1ccc(C(=O)c2sc(Nc3ccc(N(C)C)cc3)nc2N)cc1` [C(3), [4-Amino-2-(4-dimethylamino-phenylamino)-thiazol-5-yl]-(4-methoxy-phenyl)-methanone], the pKi in assay [1] was 5.92; on CDK2/cyclin A, 5.33.

With `COc1ccc(C(=O)c2sc(Nc3ccc(S(N)(=O)=O)cc3)nc2N)c(OC)c1` [C(33), 4-[4-Amino-5-(2,4-dimethoxy-benzoyl)-thiazol-2-ylamino]-benzenesulfonamide], the pKi is 7.24 in assay [1] and 7.70 at CDK2/cyclin A. Turning to `CCOC(=O)c1ccc(C(=O)c2sc(Nc3ccc(S(N)(=O)=O)cc3)nc2N)cc1` [C(34), Ethyl 4-[4-Amino-2-(4-sulfamoyl-phenylamino)-thiazole-5-carbonyl]-benzoate], the pKi in assay [1] was 6.85; on CDK2/cyclin A, 6.88. With `Cc1ccc(C(=O)c2sc(Nc3ccc(-n4ccnc4)cc3)nc2N)c(C)c1` [C(41), [4-Amino-2-(4-imidazol-1-yl-phenylamino)-thiazol-5-yl]-(2,4-dimethyl-phenyl)-methanone], the pKi in assay [1] was 6.46; at CDK2/cyclin A it was 6.47. In the case of `Cc1ccsc1C(=O)c1sc(Nc2ccc(-n3ccnc3)cc2)nc1N` [C(42), [4-Amino-2-(4-imidazol-1-yl-phenylamino)-thiazol-5-yl]-(3-methyl-thiophen-2-yl)-methanone], the pKi in assay [1] was 6.12; on CDK2/cyclin A, 6.68. Turning to `Nc1nc(Nc2ccc(S(N)(=O)=O)cc2)sc1C(=O)c1ccc2c(c1)CCC(=O)N2` [C(51), 4-[4-Amino-5-(2-oxo-1,2,3,4-tetrahydro-quinoline-6-carbonyl)-thiazol-2-ylamino]-benzenesulfonamide], the pKi is 7.07 in assay [1] and 7.48 on CDK2/cyclin A.

Regarding `Nc1nc(Nc2ccc(-c3ncc[nH]3)cc2)sc1C(=O)c1c(Cl)cc(C(F)(F)F)cc1Cl` [C(53), {4-Amino-2-[4-(1H-imidazol-2-yl)-phenylamino]-thiazol-5-yl}-(2,6-dichloro-4-trifluoromethyl-phenyl)-methanone], the pKi in assay [1] is 7.07; on CDK2/cyclin A, 6.74.

Take `Cc1ccc(C(=O)c2sc(Nc3ccc(N4CCOCC4)cc3)nc2N)c(C)c1` [C(54), [4-Amino-2-(4-morpholin-4-yl-phenylamino)-thiazol-5-yl]-(2,4-dimethyl-phenyl)-methanone]: the values for the pKi (in assay [1]; at CDK2/cyclin A) were 7.47 and 6.34, respectively. For `CCOC(=O)c1ccc(Nc2nc(N)c(C(=O)c3c(Cl)cccc3Cl)s2)cc1` [C(56), Ethyl 4-[4-Amino-5-(2,6-dichloro-benzoyl)-thiazol-2-ylamino]-benzoate], the pKi in assay [1] is 6.71; at CDK2/cyclin A, 5.99. For `Cc1cc(C)c(C(=O)c2sc(Nc3ccc4nc[nH]c4c3)nc2N)c(C)c1` [C(57), [4-Amino-2-(1H-benzoimidazol-6-ylamino)-thiazol-5-yl]-(2,4,6-trimethyl-phenyl)-methanone], the pKi in assay [1] is 7.52; on CDK2/cyclin A it was 6.59. In the case of `Cc1ccc(C)c(C(=O)c2sc(Nc3ccc4nc[nH]c4c3)nc2N)c1C` [C(58), [4-Amino-2-(1H-benzoimidazol-6-ylamino)-thiazol-5-yl]-(2,3,6-trimethyl-phenyl)-methanone], the values for the pKi (in assay [1]; at CDK2/cyclin A) were 7.47 and 6.51, respectively.

As to `Cc1cncc(C)c1C(=O)c1sc(Nc2ccc(S(N)(=O)=O)cc2)nc1N` [C(59), [4-Amino-2-(4-sulfamoyl-phenylamino)-thiazol-5-yl]-(3,5-dimethyl-pyridin-4-yl)-methanone], the pKi in assay [1] is 7.00; at CDK2/cyclin A, 6.87. For the compound `Cc1cccc(C)c1C(=O)c1sc(Nc2ccc3nc[nH]c3c2)nc1N` [C(60), [4-Amino-2-(1H-benzoimidazol-6-ylamino)-thiazol-5-yl]-(2,6-dimethyl-phenyl)-methanone], the pKi in assay [1] was 7.25; on CDK2/cyclin A, 6.24.

As for `Cc1cccc([N+](=O)[O-])c1C(=O)c1sc(Nc2ccc3nc[nH]c3c2)nc1N` [C(61), [4-Amino-2-(1H-benzoimidazol-6-ylamino)-thiazol-5-yl]-(2-methyl-6-nitro-phenyl)-methanone], the pKi was 6.92 in assay [1] and 5.92 on CDK2/cyclin A. `Cc1cccc(C)c1C(=O)c1sc(Nc2ccc(N3CCOCC3)cc2)nc1N` [C(62), [4-Amino-2-(4-morpholin-4-yl-phenylamino)-thiazol-5-yl]-(2,6-dimethyl-phenyl)-methanone]: the pKi is 7.14 in assay [1] and 5.77 at CDK2/cyclin A. Turning to `Nc1nc(Nc2ccc3nc[nH]c3c2)sc1C(=O)[C@@H]1CCCN1C(=O)OCc1ccccc1` [C(64), 2S-[4-Amino-2-(1H-benzoimidazol-5-yl-amino)-thiazole-5-carbonyl]-N-carbobenzyloxy-pyrrolidine], the pKi in assay [1] was 4.36. In addition, the Ki on CDK2/cyclin A is 42 µM. Regarding `Nc1nc(Nc2ccc(S(N)(=O)=O)cc2)sc1C(=O)[C@@H]1CCCN1C(=O)OCc1ccccc1` [C(65), 2S-[4-Amino-2-(4-sulfamoyl-phenylamino)-thiazole-5-carbonyl]-N-carbobenzyloxy-pyrrolidine], the pKi in assay [1] was 4.42. The Ki on CDK2/cyclin A is 14.3 µM. Turning to `Cc1cccc(Br)c1C(=O)c1sc(Nc2ccc3nc[nH]c3c2)nc1N` [C(66), [4-Amino-2-(1H-benzoimidazol-6-ylamino)-thiazol-5-yl]-(2-bromo-6-methyl-phenyl)-methanone], the pKi in assay [1] is 7.28; at CDK2/cyclin A it was 6.24. With `Cc1cccc(-c2ccccc2)c1C(=O)c1sc(Nc2ccc3nc[nH]c3c2)nc1N` [C(67), [4-Amino-2-(1H-benzoimidazol-6-ylamino)-thiazol-5-yl]-(3-methyl-biphenyl-2-yl)-methanone], the pKi in assay [1] is 5.50. Further, the Ki on CDK2/cyclin A was found to be 13.2 µM.

In the case of `Nc1nc(Nc2ccc3nc[nH]c3c2)sc1C(=O)c1sc(Br)cc1Br` [C(72), [4-Amino-2-(1H-benzoimidazol-6-ylamino)-thiazol-5-yl]-(3,5-dibromo-thiophen-2-yl)-methanone], the pKi was 7.87 in assay [1] and 6.77 at CDK2/cyclin A. Consider `Cc1c(C(=O)c2sc(Nc3ccc4nc[nH]c4c3)nc2N)ncn1C` [C(74), [4-Amino-2-(1H-benzoimidazol-6-ylamino)-thiazol2-5-yl]-(1,5-dimethyl-1H-imidazol-4-yl)-methanone], for which the pKi in assay [1] is 5.32. Besides, the Ki at CDK2/cyclin A came out at 10.6 µM. With `COC(=O)c1cccc(Nc2nc(N)c(C(=O)c3ccc4ccccc4c3)s2)c1` [I(15)], the pKi in assay [1] is 6.36. As to `COc1cc(C(=O)c2sc(Nc3ccccc3)nc2N)cc(OC)c1OC` [I(16)], in assay [1], the pKi is 5.73. Regarding `COC(=O)c1cccc(C(=O)c2sc(Nc3cccc([N+](=O)[O-])c3)nc2N)c1` [I(17)], in assay [1], the pKi is above 6.00. `COc1ccc(C(=O)Nc2nc(N)c(C(=O)c3ccccc3[N+](=O)[O-])s2)cc1` [I(18)]: the Ki in assay [1] (μM) was above 25 µM. On to `Cc1ccc(Nc2nc(N)c(C(=O)c3ccccc3)s2)cc1` [I(23)], for which the pKi in assay [1] is 5.82.
